Measurements published in patent US20120190754A1, “ANTIMICROBIAL COMPOSITION CONTAINING PARACHLORMETAXYLENOL” (Sentinel Products Corp., priority 2009, published 2012).

System: bacteria or mold
Experiment: retention of antimicrobial activity on a substrate
Settings: no test method described

Cc1cc(O)cc(C)c1Cl [PCMX, 4-chloro-3,5-dimethyl phenol]
duration of antimicrobial effect on a substrate: hours
